Measurements published in patent US9469650B2, “Melampomagnolide B derivatives” (BOARD OF TRUSTEES OF THE UNIVERSITY OF ARKANSAS, priority 2013, dated 2016).

How the values were obtained:
[1] = test system: HS 578T; test: panel of 60 human tumor cell lines, growth inhibition (Breast Cancer)
[2] = test system: NCI/ADR-RES; test: panel of 60 human tumor cell lines, growth inhibition (Ovarian Cancer)
[3] = test system: K-562; test: panel of 60 human tumor cell lines, growth inhibition (Leukemia); details: K-562
[4] = test system: A498; test: panel of 60 human tumor cell lines, growth inhibition (Renal Cancer); details: A498
[5] = test system: 786-0; test: as above; details: 786-0
[6] = test system: SF-295; test: panel of 60 human tumor cell lines, growth inhibition (CNS Cancer); details: SF-295
[7] = test system: NCI-H226; test: panel of 60 human tumor cell lines, growth inhibition (Non-Small Cell Lung Cancer); details: NCI-H226
[8] = test system: M14; test: panel of 60 human tumor cell lines, growth inhibition (Melanoma); details: M14
[9] = test system: U251; test: panel of 60 human tumor cell lines, growth inhibition (CNS Cancer); details: U251
[10] = test system: SW-620; test: panel of 60 human tumor cell lines, growth inhibition (Colon Cancer); details: SW-620
[11] = test system: DU-145; test: panel of 60 human tumor cell lines, growth inhibition (Prostate Cancer); details: DU-145
[12] = test system: CAKI-1; test: panel of 60 human tumor cell lines, growth inhibition (Renal Cancer); details: CAKI-1
[13] = test system: HOP-62; test: panel of 60 human tumor cell lines, growth inhibition (Non-Small Cell Lung Cancer); details: HOP-62
[14] = test system: PC-3; test: panel of 60 human tumor cell lines, growth inhibition (Prostate Cancer); details: PC-3
[15] = test system: COLO 205; test: panel of 60 human tumor cell lines, growth inhibition (Colon Cancer); details: COLO 205
[16] = test system: SF-268; test: panel of 60 human tumor cell lines, growth inhibition (CNS Cancer); details: SF-268
[17] = test system: OVCAR-5; test: panel of 60 human tumor cell lines, growth inhibition (Ovarian Cancer); details: OVCAR-5
[18] = test system: NCI-H522; test: panel of 60 human tumor cell lines, growth inhibition (Non-Small Cell Lung Cancer); details: NCI-H522
[19] = test system: LOX IMVI; test: panel of 60 human tumor cell lines, growth inhibition (Melanoma)

C=C1C(=O)O[C@H]2[C@H]1CC/C(COC(=O)NCCN1CCCCC1)=C\CC[C@@]1(C)O[C@@H]21 [JVM 2-13]
GI50 [1]: 18.4 µM
TGI ([1]; HS 57BT): 66 µM
Percent Growth ([1]; HS 57BT, Log10 Concentration −4.0): −16%
Percent Growth ([1]; HS 57BT, Log10 Concentration −5.0): 74%
Percent Growth ([1]; HS 57BT, Log10 Concentration −6.0): 89%
Percent Growth ([1]; HS 57BT, Log10 Concentration −7.0): 87%
Percent Growth ([1]; HS 57BT, Log10 Concentration −8.0): 92%
GI50 [2]: 31.2 µM
TGI [2]: >100 µM
Percent Growth ([2]; Log10 Concentration −4.0): 4%
Percent Growth ([2]; Log10 Concentration −5.0): 95%
Percent Growth ([2]; Log10 Concentration −6.0): 103%
Percent Growth ([2]; Log10 Concentration −7.0): 107%
Percent Growth ([2]; Log10 Concentration −8.0): 103%
GI50 [3]: 2.79 µM
TGI [3]: 9.11 µM
Percent Growth ([3]; Log10 Concentration −4.0): −42%
Percent Growth ([3]; Log10 Concentration −5.0): −4%
Percent Growth ([3]; Log10 Concentration −6.0): 93%
Percent Growth ([3]; Log10 Concentration −7.0): 95%
Percent Growth ([3]; Log10 Concentration −8.0): 100%
GI50 [4]: 11.8 µM
TGI [4]: 25 µM
Percent Growth ([4]; Log10 Concentration −4.0): −92%
Percent Growth ([4]; Log10 Concentration −5.0): 61%
Percent Growth ([4]; Log10 Concentration −6.0): 71%
Percent Growth ([4]; Log10 Concentration −7.0): 65%
Percent Growth ([4]; Log10 Concentration −8.0): 73%
GI50 [5]: 3.95 µM
TGI [5]: 17.3 µM
Percent Growth ([5]; Log10 Concentration −4.0): −74%
Percent Growth ([5]; Log10 Concentration −5.0): 23%
Percent Growth ([5]; Log10 Concentration −6.0): 90%
Percent Growth ([5]; Log10 Concentration −7.0): 89%
Percent Growth ([5]; Log10 Concentration −8.0): 86%
GI50 [6]: 50.8 µM
TGI [6]: >100 µM
Percent Growth ([6]; Log10 Concentration −4.0): 32%
Percent Growth ([6]; Log10 Concentration −5.0): 94%
Percent Growth ([6]; Log10 Concentration −6.0): 96%
Percent Growth ([6]; Log10 Concentration −7.0): 95%
Percent Growth ([6]; Log10 Concentration −8.0): 90%
GI50 [7]: 10.5 µM
TGI [7]: 40.2 µM
Percent Growth ([7]; Log10 Concentration −4.0): −3%
Percent Growth ([7]; Log10 Concentration −5.0): 52%
Percent Growth ([7]; Log10 Concentration −6.0): 93%
Percent Growth ([7]; Log10 Concentration −7.0): 96%
Percent Growth ([7]; Log10 Concentration −8.0): 99%
GI50 [8]: 6.78 µM
Percent Growth ([8]; Log10 Concentration −4.0): −82%
Percent Growth ([8]; Log10 Concentration −5.0): 42%
Percent Growth ([8]; Log10 Concentration −6.0): 91%
Percent Growth ([8]; Log10 Concentration −7.0): 96%
Percent Growth ([8]; Log10 Concentration −8.0): 91%
GI50 [9]: 17.5 µM
TGI [9]: 13.5 µM
Percent Growth ([9]; Log10 Concentration −4.0): −84%
Percent Growth ([9]; Log10 Concentration −5.0): 93%
Percent Growth ([9]; Log10 Concentration −6.0): 94%
Percent Growth ([9]; Log10 Concentration −7.0): 97%
Percent Growth ([9]; Log10 Concentration −8.0): 98%
GI50 [10]: 2.72 µM
TGI [10]: 12.3 µM
Percent Growth ([10]; Log10 Concentration −4.0): −74%
Percent Growth ([10]; Log10 Concentration −5.0): 7%
Percent Growth ([10]; Log10 Concentration −6.0): 83%
Percent Growth ([10]; Log10 Concentration −7.0): 96%
Percent Growth ([10]; Log10 Concentration −8.0): 100%
GI50 [11]: 4.89 µM
TGI [11]: 16.6 µM
Percent Growth ([11]; Log10 Concentration −4.0): −97%
Percent Growth ([11]; Log10 Concentration −5.0): 27%
Percent Growth ([11]; Log10 Concentration −6.0): 101%
Percent Growth ([11]; Log10 Concentration −7.0): 108%
Percent Growth ([11]; Log10 Concentration −8.0): 110%
GI50 [12]: 3.43 µM
TGI [12]: 15.7 µM
Percent Growth ([12]; Log10 Concentration −4.0): −98%
Percent Growth ([12]; Log10 Concentration −5.0): 24%
Percent Growth ([12]; Log10 Concentration −6.0): 80%
Percent Growth ([12]; Log10 Concentration −7.0): 92%
Percent Growth ([12]; Log10 Concentration −8.0): 89%
GI50 [13]: 17 µM
Percent Growth ([13]; Log10 Concentration −4.0): −77%
Percent Growth ([13]; Log10 Concentration −5.0): 88%
Percent Growth ([13]; Log10 Concentration −6.0): 91%
Percent Growth ([13]; Log10 Concentration −7.0): 95%
Percent Growth ([13]; Log10 Concentration −8.0): 86%
GI50 [14]: 15.7 µM
TGI [14]: 33.3 µM
Percent Growth ([14]; Log10 Concentration −4.0): −73%
Percent Growth ([14]; Log10 Concentration −5.0): 80%
Percent Growth ([14]; Log10 Concentration −6.0): 94%
Percent Growth ([14]; Log10 Concentration −7.0): 96%
Percent Growth ([14]; Log10 Concentration −8.0): 97%
GI50 [15]: 1.79 µM
TGI [15]: 1.73 µM
Percent Growth ([15]; Log10 Concentration −4.0): −75%
Percent Growth ([15]; Log10 Concentration −5.0): −67%
Percent Growth ([15]; Log10 Concentration −6.0): 90%
Percent Growth ([15]; Log10 Concentration −7.0): 101%
Percent Growth ([15]; Log10 Concentration −8.0): 92%
GI50 [16]: 9.67 µM
TGI [16]: 24.4 µM
Percent Growth ([16]; Log10 Concentration −4.0): −78%
Percent Growth ([16]; Log10 Concentration −5.0): 49%
Percent Growth ([16]; Log10 Concentration −6.0): 96%
Percent Growth ([16]; Log10 Concentration −7.0): 104%
Percent Growth ([16]; Log10 Concentration −8.0): 97%
GI50 [17]: 10.6 µM
TGI [17]: 24.2 µM
Percent Growth ([17]; Log10 Concentration −4.0): −86%
Percent Growth ([17]; Log10 Concentration −5.0): 53%
Percent Growth ([17]; Log10 Concentration −6.0): 82%
Percent Growth ([17]; Log10 Concentration −7.0): 87%
Percent Growth ([17]; Log10 Concentration −8.0): 84%
GI50 [18]: 1.12 µM
TGI [18]: 2.86 µM
Percent Growth ([18]; Log10 Concentration −4.0): −65%
Percent Growth ([18]; Log10 Concentration −5.0): −67%
Percent Growth ([18]; Log10 Concentration −6.0): 56%
Percent Growth ([18]; Log10 Concentration −7.0): 105%
Percent Growth ([18]; Log10 Concentration −8.0): 99%
GI50 [19]: 10.2 µM
TGI [19]: 23.9 µM
Percent Growth ([19]; Log10 Concentration −4.0): −84%
Percent Growth ([19]; Log10 Concentration −5.0): 51%
Percent Growth ([19]; Log10 Concentration −6.0): 94%
Percent Growth ([19]; Log10 Concentration −7.0): 99%
Percent Growth ([19]; Log10 Concentration −8.0): 102%
